In PMC7497641, “Neurotropic activity and safety of methylene-cycloalkylacetate (MCA) derivative 3-(3-allyl-2-methylenecyclohexyl) propanoic acid” (ACS Chemical Neuroscience, 2020):

Experiments:
Experiment in all cases: PhosphoSens CSox based kinase assay
Format in all cases: biochemical
FGFR 2 = target: T1, FGFR 2 (Homo sapiens, UniProt P21802); details: 5 μM HU-MCA-13
T1 construct: purchased Carna 08-134
Description: (§1) The initial focus was to measure the modulatory activity in vitro of MCA-13 on protein kinases which were reported to be involved in induction of neurite outgrowth.[18],[43] To do this, we took advantage of a powerful method to measure the activity of recombinant protein kinases using a homogeneous and continuous (kinetic) format, where the level of chelation-enhanced fluorescence (CHEF) is directly proportional to the amount of phosphorylated, real-time sensors consisting of sulfonamido-oxine (Sox) chromophore linked to a peptide or protein substrates of selective kinases.[44] This assay is ideal for elucidating drug mechanism of action and is increasingly being applied earlier in the drug development workflow to address off target effects and/or the challenges and opportunities for next generation protein kinase inhibitors.[45] Since neurotrophins induce neurite outgrowth by activating the different tropomyosin kinase receptors (Trk), and small molecules agonists of Trk receptors can selectively activate Trks,[46] we first investigated the ability of HU-MCA-13 to modulate TRKA, TRKB and TRKC phosphorylation activities (Supporting Information, Figure S3-2). […] The TRKs constructs used in the assay contained only the intracellular kinase domain (amino acids 442–786) and therefore presently we cannot exclude that HU-MCA-13 may interact with the TRKs extracellular domain thereby inducing the conformational change required for the kinase domain activation. […] Moreover, no effects of HU-MCA-13were found on other kinases (ASK1, ERK2, JNK3, p38α, CDK5, KDR-VEGFR, AKT1, GSK3β, PDGFRβ, PKACα, PKC, CK1, IKKβ) which stimulate neurite outgrowth. Also, no effects were observed of HU-MCA-13 on kinases (EGFR, IGF1R, FGFR 1 and 2, CAMK2α,) which inhibit neurite outgrowth or calcineurin phosphatase which dephosphorylates the neurite outgrowth stimulatory protein, cofilin.[47]
(§2) MCA-13 safety b y in vitro eval uati on usi ng Phos pho Sens®C Soxb ased kinase […]
(§3) Method: Kinase Activity Measurements
(§4) Kinase activity was measured continuously using the PhosphoSens®technology (AssayQuant Technologies Inc., Marlborough, MA) according to the manufacturers’ recommendations (http://www.assayquant.com/) . This one-step homogeneous assay use s chelation-enh anced fluorescence via optimized substrate sensors unique for each kinase, containing the unnatural fluorogenic amino-acid Sox.
(§5) The following kinases which, upon stimulation or inhibition with small molecule modulators, induced neurite outgrowth, were obtained from different companies and were used in this study at the following concentrations: 2.
(§6) 25 µL final reaction volume including : 2.5 µl Sox-based substrate (10 x), 17.5 µl reaction mix with AT P, 5.0 µL Kinase [5x in EDB (Enzyme Dilution Buffer : 20 mM TRIS, pH 8.0, 0.01% Brij -35, 0.1 mM EGTA, 5% Glycerol, 1 mM DTT, 1 mg/mL Bovine Serum Albumin]. 5-45 min preincubation (all except EDB/kinase) at 30 °C of substrate in reaction mix and ATP ensuring that the progress kinetic curve for the background fluorescence w as flat. Reaction was run at 30 °C for […]
(§7) Final Reaction Conditions.
(§8) Protein kinase activity was determined in 54 mM HEPES, pH 7.5 1 mM ATP 1.2 mM DTT (none in ASK1) 0.012% Brij-35 1% glycerol 0.2 mg/ml BSA 0.52 mM EGTA (none in assays of CAMK2α, PKCε, PKCι, Calcineurin A/B) 140 µM phosphatidylserine/3.8 µM diacylglycerol (PKCε, PKCι only) 5 ng/µl calmodulin/0.4 mM CaCl2 (CAMK2α, Calcineurin A/B only) 10 mM […]
(§9) IKKβ, AKT1, GSK3β, PKCε, PKCι, PKACα, KDR, CK1δ, EGFR, ASK1, IGF1R, CAMK2α, DLK, FGFR2, FGFR1) in the presence or absence of 5 µ M H U-MCA-13 test compound. All components e xcept enzyme were equilibrated to 30 °C prior to setting up reactions run in Corning, 384-well, white flat round bottom polystyrene NBS microplates (Cat. #3824) after sealing using optically-clear adhesive film [TopSealA -Plus plate seal, PerkinElmer (Cat. #6050185)], applied with a roller to eliminate evaporation and resulting drift. Europium was added to a final […]

p38α = target: T2, p38α (Homo sapiens, UniProt Q16539); details: 5 μM HU-MCA-13
T2 construct: p38α, amino acids 9-352, Carna (cat. & lot #: 04-152,; purchased Carna 04-152
T2 sequence (Q16539 9-352): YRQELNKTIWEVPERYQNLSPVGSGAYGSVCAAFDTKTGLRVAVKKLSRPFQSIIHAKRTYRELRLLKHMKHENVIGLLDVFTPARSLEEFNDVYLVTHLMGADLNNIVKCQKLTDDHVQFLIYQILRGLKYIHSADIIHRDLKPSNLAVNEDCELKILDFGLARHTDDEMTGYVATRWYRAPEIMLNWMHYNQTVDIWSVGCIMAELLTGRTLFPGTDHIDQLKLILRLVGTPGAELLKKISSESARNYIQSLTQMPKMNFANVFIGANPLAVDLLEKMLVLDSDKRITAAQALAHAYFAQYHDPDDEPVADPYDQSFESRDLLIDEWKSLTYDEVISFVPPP
Description: as §1, §2, §3, §4, §5, §6, §7, §8, §9

IKKβ = target: T3, IKKβ (Homo sapiens, UniProt O14920); details: 5 μM HU-MCA-13
T3 construct: purchased Invitrogen PV3836
T3 sequence (O14920 whole entry): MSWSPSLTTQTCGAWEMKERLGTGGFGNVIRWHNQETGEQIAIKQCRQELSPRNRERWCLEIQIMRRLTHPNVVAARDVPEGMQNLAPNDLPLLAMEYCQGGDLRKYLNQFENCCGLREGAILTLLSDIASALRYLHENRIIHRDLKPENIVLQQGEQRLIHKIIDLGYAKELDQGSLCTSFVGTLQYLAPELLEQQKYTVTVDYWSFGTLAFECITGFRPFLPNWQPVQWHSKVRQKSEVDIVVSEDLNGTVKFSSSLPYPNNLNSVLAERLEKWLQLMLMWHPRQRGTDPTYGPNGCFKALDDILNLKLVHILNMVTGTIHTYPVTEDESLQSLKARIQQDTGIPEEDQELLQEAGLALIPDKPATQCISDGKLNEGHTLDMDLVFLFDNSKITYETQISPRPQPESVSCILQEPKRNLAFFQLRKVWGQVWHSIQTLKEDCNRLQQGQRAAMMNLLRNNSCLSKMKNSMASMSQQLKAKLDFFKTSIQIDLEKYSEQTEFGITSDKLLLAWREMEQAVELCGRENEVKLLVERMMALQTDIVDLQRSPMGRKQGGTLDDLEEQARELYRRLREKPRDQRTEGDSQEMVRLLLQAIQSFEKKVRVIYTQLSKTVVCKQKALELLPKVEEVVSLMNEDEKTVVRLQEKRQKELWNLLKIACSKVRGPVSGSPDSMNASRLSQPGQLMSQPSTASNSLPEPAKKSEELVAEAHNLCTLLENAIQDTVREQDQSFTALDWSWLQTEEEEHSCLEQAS
Description: as §1, §2, §3, §4, §5, §6, §7, §8, §9

AKT1 = target: T4, AKT1 (Homo sapiens, UniProt P31749); details: 5 μM HU-MCA-13
T4 construct: AKT1, amino acids 104-480, Carna (cat. & lot #: 01 -101,; purchased Carna 01-101
T4 sequence (P31749 104-480): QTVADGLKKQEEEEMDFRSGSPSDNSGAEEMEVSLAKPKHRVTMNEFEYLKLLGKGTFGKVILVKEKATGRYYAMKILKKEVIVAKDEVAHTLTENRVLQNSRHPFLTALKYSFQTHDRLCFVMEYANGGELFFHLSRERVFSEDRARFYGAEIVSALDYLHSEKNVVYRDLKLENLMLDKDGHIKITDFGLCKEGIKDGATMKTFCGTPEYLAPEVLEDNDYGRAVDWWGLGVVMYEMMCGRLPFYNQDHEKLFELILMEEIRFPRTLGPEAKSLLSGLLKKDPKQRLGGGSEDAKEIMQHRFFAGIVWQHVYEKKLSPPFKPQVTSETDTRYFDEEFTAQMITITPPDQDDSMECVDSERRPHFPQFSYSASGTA
Description: as §1, §2, §3, §4, §5, §6, §7, §8, §9

GSK3β = target: T5, GSK3β (Homo sapiens, UniProt P49841); details: 5 μM HU-MCA-13
T5 construct: GSK3β, amino acids 1 -420, Carna (cat. & lot #: 04-141/13CBS-; purchased Carna 04-141
T5 sequence (P49841 whole entry, the tested form may be a part): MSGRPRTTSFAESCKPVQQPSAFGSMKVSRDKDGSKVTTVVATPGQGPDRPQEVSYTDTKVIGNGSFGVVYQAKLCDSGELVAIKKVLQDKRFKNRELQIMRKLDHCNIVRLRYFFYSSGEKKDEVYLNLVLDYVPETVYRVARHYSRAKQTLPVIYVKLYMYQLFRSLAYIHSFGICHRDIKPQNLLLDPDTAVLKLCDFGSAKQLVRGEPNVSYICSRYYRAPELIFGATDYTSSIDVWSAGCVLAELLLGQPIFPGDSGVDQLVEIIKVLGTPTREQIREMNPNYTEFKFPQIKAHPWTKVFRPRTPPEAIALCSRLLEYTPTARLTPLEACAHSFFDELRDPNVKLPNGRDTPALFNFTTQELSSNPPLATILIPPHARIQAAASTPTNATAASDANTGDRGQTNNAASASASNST
Description: as §1, §2, §3, §4, §5, §6, §7, §8, §9

TRKA = target: T6, TRKA (Homo sapiens, UniProt P04629); details: 5 μM HU-MCA-13; intracellular kinase domain
T6 construct: purchased BPS Bio 40280 (lot 151113G)
T6 sequence (P04629 442-796): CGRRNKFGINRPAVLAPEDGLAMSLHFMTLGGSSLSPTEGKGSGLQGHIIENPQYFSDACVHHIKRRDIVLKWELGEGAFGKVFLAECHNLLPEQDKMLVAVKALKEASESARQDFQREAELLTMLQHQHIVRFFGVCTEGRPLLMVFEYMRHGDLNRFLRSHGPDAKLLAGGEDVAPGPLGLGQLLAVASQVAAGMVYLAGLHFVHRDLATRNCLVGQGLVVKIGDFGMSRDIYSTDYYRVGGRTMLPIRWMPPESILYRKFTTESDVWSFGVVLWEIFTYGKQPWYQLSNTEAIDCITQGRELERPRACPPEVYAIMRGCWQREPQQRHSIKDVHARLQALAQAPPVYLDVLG
Description: as §1, §2, §3, §4, §5, §6, §7, §8, §9

PKACα = target: T7, PKACα (Homo sapiens, UniProt P17612); details: 5 μM HU-MCA-13
T7 construct: PKACα, amino acids 1 -351, Carna (cat. & lot #: 01 -127/10CBS -0315N)/; purchased Carna 01-127
Description: as §1, §2, §3, §4, §5, §6, §7, §8, §9

ASK1 = target: T8, ASK1 (Homo sapiens, UniProt Q99683); details: 5 μM HU-MCA-13
T8 construct: ASK1, amino acids 1-1374, Invitrogen; purchased Invitrogen PV3809
Description: as §1, §2, §3, §4, §5, §6, §7, §8, §9

CDK5 = target: T9, CDK5 (Homo sapiens, UniProt Q00535); details: 5 μM HU-MCA-13
T9 construct: CDK5/p25, amino acids 1 -292/99 -307, Carna; purchased Carna 04-106
T9 sequence (Q00535 whole entry, the tested form may be a part): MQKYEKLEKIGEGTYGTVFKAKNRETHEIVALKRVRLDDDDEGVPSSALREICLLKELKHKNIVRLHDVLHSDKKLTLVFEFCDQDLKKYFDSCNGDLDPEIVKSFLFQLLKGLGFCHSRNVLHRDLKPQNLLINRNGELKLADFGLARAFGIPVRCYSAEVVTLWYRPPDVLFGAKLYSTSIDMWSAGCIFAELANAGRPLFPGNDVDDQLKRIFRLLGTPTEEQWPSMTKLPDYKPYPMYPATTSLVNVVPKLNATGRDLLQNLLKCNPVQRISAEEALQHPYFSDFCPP
T9 sequence (Q15078 99-307 partner limits assumed): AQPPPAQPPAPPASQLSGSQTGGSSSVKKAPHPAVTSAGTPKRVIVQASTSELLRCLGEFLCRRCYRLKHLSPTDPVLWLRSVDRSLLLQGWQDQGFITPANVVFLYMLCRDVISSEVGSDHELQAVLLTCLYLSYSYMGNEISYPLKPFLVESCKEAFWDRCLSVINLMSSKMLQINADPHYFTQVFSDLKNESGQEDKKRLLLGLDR
Description: as §1, §2, §3, §4, §5, §6, §7, §8, §9

EGFR = target: T10, EGFR (Homo sapiens, UniProt P00533); details: 5 μM HU-MCA-13
T10 construct: amino acids 668-1210, BPS Bio (cat. & lot #: 40187,; purchased BPS Bio 40187
T10 sequence (P00533 668-1210): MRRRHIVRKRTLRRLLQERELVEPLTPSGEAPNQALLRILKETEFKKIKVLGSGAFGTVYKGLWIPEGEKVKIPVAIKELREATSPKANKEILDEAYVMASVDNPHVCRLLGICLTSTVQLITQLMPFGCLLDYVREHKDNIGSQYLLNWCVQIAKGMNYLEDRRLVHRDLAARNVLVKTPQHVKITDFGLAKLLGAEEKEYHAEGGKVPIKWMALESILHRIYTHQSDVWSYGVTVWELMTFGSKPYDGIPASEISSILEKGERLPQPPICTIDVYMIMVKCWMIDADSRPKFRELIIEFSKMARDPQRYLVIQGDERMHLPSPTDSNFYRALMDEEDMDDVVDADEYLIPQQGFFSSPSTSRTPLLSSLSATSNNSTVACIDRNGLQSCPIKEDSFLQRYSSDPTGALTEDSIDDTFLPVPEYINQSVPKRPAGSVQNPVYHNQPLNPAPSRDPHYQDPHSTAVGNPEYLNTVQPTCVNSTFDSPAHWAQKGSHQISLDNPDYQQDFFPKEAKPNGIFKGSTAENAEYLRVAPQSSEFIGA
Description: as §1, §2, §3, §4, §5, §6, §7, §8, §9

IGF1R = target: T11, IGF1R (Homo sapiens, UniProt P08069); details: 5 μM HU-MCA-13
T11 construct: amino acids 959-1367, Carna (cat. & lot #: 08); purchased Carna 08-141
T11 sequence (P08069 959-1367): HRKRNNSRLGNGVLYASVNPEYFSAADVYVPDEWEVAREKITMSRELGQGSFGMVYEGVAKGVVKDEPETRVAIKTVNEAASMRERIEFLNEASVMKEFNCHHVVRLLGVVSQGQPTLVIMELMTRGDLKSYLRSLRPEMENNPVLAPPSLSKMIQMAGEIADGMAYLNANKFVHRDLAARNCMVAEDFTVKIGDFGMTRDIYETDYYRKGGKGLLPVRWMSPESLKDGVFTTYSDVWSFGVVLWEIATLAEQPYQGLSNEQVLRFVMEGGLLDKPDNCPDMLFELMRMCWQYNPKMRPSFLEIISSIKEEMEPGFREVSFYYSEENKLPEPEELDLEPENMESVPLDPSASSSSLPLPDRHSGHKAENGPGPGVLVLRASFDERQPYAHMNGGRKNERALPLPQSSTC
Description: as §1, §2, §3, §4, §5, §6, §7, §8, §9

FGFR 1 = target: T12, FGFR 1 (Homo sapiens, UniProt P11362); details: 5 μM HU-MCA-13
T12 construct: 396-820, Carna (cat. & lot #: 08); purchased Carna 08-133
T12 sequence (P11362 398-822): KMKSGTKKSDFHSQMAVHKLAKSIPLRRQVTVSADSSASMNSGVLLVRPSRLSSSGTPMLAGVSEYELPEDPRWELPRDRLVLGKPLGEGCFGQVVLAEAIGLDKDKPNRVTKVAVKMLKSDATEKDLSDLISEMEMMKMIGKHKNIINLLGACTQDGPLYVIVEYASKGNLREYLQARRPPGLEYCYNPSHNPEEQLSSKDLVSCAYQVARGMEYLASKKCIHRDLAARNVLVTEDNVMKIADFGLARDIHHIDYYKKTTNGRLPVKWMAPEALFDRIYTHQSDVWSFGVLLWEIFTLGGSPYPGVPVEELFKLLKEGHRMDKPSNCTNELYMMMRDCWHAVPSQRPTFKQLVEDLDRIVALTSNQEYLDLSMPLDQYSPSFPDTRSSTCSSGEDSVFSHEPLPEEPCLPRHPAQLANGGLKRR
Description: as §1, §2, §3, §4, §5, §6, §7, §8, §9

ERK2 = target: T13, ERK2 (Homo sapiens, UniProt P28482); details: 5 μM HU-MCA-13
T13 construct: ERK2, amino acids 1-360, Carna; purchased Carna 04-143
T13 sequence (P28482 whole entry, the tested form may be a part): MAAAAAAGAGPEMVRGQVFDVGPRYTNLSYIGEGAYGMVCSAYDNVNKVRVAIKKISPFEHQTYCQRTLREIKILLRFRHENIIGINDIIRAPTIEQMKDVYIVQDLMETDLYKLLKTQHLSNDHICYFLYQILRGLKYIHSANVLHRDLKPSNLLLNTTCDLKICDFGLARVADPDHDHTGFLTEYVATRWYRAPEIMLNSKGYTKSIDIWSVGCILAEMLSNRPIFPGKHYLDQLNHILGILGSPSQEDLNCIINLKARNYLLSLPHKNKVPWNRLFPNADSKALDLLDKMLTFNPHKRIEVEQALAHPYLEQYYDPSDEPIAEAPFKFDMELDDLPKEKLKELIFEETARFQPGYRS
Description: as §1, §2, §3, §4, §5, §6, §7, §8, §9

T1 sequence (P21802 399-821): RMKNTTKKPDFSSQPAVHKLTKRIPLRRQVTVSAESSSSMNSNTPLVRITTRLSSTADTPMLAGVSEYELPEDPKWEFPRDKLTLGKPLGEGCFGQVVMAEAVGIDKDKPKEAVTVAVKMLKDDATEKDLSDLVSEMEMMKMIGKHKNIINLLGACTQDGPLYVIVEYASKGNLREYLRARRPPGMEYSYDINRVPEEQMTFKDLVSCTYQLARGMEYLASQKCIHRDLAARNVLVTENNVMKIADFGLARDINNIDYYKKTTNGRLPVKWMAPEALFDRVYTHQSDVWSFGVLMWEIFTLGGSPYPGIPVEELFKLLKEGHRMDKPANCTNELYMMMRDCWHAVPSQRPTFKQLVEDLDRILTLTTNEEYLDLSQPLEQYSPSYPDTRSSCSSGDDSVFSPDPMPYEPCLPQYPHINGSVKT

C=CCC1CCCC(CCC(=O)O)C1=C (stereo not shown) [HU-MCA-13, 3-(3-allyl-2-methylenecyclohexyl)propanoic acid]
no effects: effect on kinase activity (FGFR 2) | effect on kinase activity (p38α) | effect on kinase activity (IKKβ) | effect on kinase activity (AKT1) | effect on kinase activity (GSK3β) | modulation of phosphorylation activity (TRKA) | effect on kinase activity (PKACα) | effect on kinase activity (ASK1) | effect on kinase activity (CDK5) | effect on kinase activity (EGFR) | effect on kinase activity (IGF1R) | effect on kinase activity (FGFR 1) | effect on kinase activity (ERK2)
